Where a name gives a salt, the structure may show the parent alone.
Columns and labels:
B-Raf = B-Raf (Homo sapiens, UniProt P15056); assay: B-Raf Accelerated MEK ATPase assay (BRAMA); type: biochemical; conditions: BRAMA enzyme assay; class by pIC50; read-out: B-Raf Activity
In short: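 B-Raf activity read as intrinsic MEK ATPase: catalytic activated RAF with non-phosphorylated MEK drives ADP formation, coupled through pyruvate kinase and lactate dehydrogenase to NADH oxidation, independent of ERK phosphorylation.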

EGFR = EGFR (Homo sapiens, UniProt P00533); assay: EGFR kinase autophosphorylation assay (peptide phosphorylation, HTRF); type: biochemical; conditions: 0.8 nM EGFR, class by pIC50
EGFR, sequence (P00533 25-1210): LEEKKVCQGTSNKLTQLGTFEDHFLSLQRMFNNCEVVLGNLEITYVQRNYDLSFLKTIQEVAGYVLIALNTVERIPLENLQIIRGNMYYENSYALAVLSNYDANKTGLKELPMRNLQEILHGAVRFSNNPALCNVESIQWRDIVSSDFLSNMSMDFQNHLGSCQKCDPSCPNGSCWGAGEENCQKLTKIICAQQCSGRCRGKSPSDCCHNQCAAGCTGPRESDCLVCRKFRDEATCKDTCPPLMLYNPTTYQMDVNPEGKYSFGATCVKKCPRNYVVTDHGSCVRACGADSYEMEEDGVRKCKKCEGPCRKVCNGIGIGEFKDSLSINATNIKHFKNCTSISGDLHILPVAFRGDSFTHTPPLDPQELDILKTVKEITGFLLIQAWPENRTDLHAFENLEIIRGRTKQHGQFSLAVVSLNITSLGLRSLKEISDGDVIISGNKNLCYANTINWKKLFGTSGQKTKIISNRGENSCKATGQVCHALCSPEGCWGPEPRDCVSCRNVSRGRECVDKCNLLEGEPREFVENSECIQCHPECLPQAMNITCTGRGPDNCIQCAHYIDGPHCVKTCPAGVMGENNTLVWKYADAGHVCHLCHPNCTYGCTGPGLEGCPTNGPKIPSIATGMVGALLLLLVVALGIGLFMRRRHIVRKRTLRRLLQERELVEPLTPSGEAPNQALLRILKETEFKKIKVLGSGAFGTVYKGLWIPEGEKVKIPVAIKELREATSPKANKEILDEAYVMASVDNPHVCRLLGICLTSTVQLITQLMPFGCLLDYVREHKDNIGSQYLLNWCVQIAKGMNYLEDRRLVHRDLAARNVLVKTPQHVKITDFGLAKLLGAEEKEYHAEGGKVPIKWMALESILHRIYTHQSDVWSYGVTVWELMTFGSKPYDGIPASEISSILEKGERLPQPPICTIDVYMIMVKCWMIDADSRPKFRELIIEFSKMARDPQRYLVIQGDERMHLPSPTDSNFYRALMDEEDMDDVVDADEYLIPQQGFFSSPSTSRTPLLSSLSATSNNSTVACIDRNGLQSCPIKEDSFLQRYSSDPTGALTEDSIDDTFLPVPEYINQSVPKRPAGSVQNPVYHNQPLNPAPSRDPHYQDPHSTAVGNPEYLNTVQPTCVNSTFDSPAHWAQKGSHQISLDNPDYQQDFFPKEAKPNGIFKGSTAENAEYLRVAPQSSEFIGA
Experimental: (§1) A selection of compounds of the present invention were tested for inhibitory activity against EGFR and ErbB2 kinases in autophosphorylation assays.
(§2) The method measures the ability of the isolated enzyme to catalyse the transfer of the gamma-phosphate from ATP onto the tyrosine residue of a biotinylated synthetic peptide referenced “Peptide C” in Brignola, P. S., et al, (2002) J. Biol. Chem. 277(2):1576-1585. The extent of tyrosine phosphorylation was measured using an anti-phosphotyrosine antibody, and quantified by homogenous time-resolved fluorescence (HTRF).
(§3) Reactions were performed in black 384-well polystyrene flat-bottom plates in a final volume of 20 ul. Assays were performed by adding 10 μl of each of the following solutions, substrate Mix and enzyme mix: The Substrate mix contained 100 mM 3-[N-morpholino]propanesulfonic acid (MOPS) (pH 7.5), 2 mM MnCl2, 20 μM ATP, 0.01% Tween-20, 0.1 mg/mL (BSA), 0.8 uM peptide substrate, and 1 mM dithiothreitol. The enzyme mix contained 100 mM MOPS (pH7.5); 0.01% Tween-20; 0.1 mg/mL BSA, and either 0.8 nM EGFR, 10 nM ErbB2, or 1 nM ErbB4
(§4) The enzyme mix was added to the compound plates and the plates were incubated at 20° C. for 1 hour. The reactions were allowed to proceed for 90 minutes at 20° C. The reactions were then terminated by the addition of 20 μl 100 mM EDTA to each well. 40 μl/well of HTRF detection mix were added to the assay plates. The final concentrations of the detection reagents were: 100 mM HEPES (pH7.5), 0.1 mg/mL BSA, 15 nM streptavidin-labeled allophycocyanin (PerkinElmer), and 1 nM europium-labeled anti-phosphotyrosine antibody (PerkinElmer). Assay plates were left unsealed and were counted in a Wallac Multilabel Counter 1420 (PerkinElmer).
(§5) Compounds under analysis were dissolved in Me2SO to 1.0 mM and serially diluted 1 to 3 with Me2SO through twelve dilutions. 1 μl of each concentration was transferred to the corresponding well of an assay plate. This creates a final compound concentration range from 0.00027 to 47.6 μM.
(§6) The data for dose responses were plotted as % Inhibition calculated with the data reduction formula 100*(1−(U1−C2)/(C1−C2)) versus concentration of compound where U is the unknown value, C1 is the average control value obtained for 4.76% DMSO, and C2 is the average control value obtained for 0.035 M EDTA. Data were fitted with a curve described by:
(§7) where Vmax is the upper asymptote, Y2 is the Y intercept, and K is the IC50. The results for each compound were recorded as pIC50s, calculated as follows: […]
(§8) In the following table: • “+” indicates no pIC50 measurement greater than 6 against EGFR or ErbB2, • “++” indicates at least one pIC50 measurement greater than 6 against EGFR or ErbB2 but no measurement greater than pIC50 of 7; and • “+++” indicates at least one pIC50 measurement of greater than 7 against EGFR or ErbB2.

A375P tumor cells = assay: Cell growth inhibition assay (CellTiter-Glo), A375P; conditions: Homo sapiens, 72 h, read-out: Activity in A375P Tumor Cells;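 note: total ATP luminescence used as proxy for cell number, serial threefold compound dilutions at 0.2% DMSO, growth inhibition expressed versus DMSO vehicle-treated wells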
ErbB2 = ErbB2 (Homo sapiens, UniProt P04626); assay: ErbB2 kinase autophosphorylation assay (peptide phosphorylation, HTRF); type: biochemical; conditions: 10 nM ErbB2, HTRF; class by pIC50
ErbB2, sequence (P04626 23-1255): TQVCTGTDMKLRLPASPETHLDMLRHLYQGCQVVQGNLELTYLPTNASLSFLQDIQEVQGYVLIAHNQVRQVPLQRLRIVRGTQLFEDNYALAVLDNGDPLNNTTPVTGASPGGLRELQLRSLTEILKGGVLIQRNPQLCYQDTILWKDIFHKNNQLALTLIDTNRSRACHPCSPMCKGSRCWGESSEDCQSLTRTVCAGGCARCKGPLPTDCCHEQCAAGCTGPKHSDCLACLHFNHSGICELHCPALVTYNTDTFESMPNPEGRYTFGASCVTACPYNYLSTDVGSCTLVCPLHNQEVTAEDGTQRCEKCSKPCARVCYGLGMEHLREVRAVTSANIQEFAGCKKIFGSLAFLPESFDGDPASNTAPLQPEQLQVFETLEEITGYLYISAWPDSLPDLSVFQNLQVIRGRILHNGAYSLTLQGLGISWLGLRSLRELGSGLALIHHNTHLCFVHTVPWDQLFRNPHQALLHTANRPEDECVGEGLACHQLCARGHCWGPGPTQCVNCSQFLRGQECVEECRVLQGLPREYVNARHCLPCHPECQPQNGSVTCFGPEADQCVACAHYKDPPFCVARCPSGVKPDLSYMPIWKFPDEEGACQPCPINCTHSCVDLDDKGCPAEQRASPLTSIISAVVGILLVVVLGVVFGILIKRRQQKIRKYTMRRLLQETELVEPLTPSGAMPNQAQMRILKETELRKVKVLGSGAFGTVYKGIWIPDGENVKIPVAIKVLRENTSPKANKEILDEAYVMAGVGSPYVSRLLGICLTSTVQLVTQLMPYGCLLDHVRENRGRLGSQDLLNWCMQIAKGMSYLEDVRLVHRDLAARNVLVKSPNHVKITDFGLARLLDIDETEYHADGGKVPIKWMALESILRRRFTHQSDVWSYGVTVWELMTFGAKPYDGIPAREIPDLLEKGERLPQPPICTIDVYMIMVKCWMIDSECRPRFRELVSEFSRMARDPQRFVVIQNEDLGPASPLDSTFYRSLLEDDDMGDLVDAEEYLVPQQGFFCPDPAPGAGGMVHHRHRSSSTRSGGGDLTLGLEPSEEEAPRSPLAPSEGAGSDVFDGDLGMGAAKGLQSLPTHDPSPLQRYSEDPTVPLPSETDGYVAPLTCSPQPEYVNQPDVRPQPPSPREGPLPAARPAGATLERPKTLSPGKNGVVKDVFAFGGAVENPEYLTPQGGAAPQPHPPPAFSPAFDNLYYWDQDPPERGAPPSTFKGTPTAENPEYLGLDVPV
Experimental: as §1, §2, §3, §4, §5, §6, §7, §8

Colo205 tumor cells = assay: Cell growth inhibition assay (CellTiter-Glo), Colo205; conditions: Homo sapiens, COLO 205, 72 h, read-out: Activity in Colo205 Tumor Cells;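 note: growth measured via total ATP luminescence (CellTiter-Glo) as a proxy for cell number, inhibition expressed against DMSO-treated control wells, 3-day exposure at 0.2% final DMSO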
HT-29 tumor cells = assay: Cell growth inhibition assay (CellTiter-Glo), HT-29; conditions: Homo sapiens, HT-29, 72 h, read-out: Activity in HT-29 Tumor Cells;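 note: ATP content read by luminescence as proxy for cell number, growth inhibition versus DMSO vehicle wells, 0.2% DMSO final, nine serial threefold compound dilutions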
SK-MEL-3 tumor cells = assay: Cell growth inhibition assay (CellTiter-Glo), SK-MEL-3; conditions: Homo sapiens, SK-MEL3, 72 h, read-out: Activity in SK-MEL-3 Tumor Cells;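 note: human melanoma cells grown with compound for 3 days in 0.2% DMSO, total ATP read by luminescence as proxy for cell number, growth inhibition versus DMSO-treated wells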
Experimental: Cell Growth Inhibition Assays Human colon tumor cells (Colo205) were cultured in RPMI (Mediatech 50-020-PB) containing 10% FBS and 1% penicillin-streptomycin. […] Human melanoma cancer cells (A375-F11S) were cultured in RPMI (Mediatech 50-020-PB) containing 10% FBS, 1% sodium pyruvate, and 1% penicillin-streptomycin. Human colon cancer cells (HT-29) were cultured in high glucose DMEM (Mediatech 50-013-PB) containing 10% FBS and 1% penicillin-streptomycin. Human melanoma cancer cells (SK-MEL-3) were cultured in McCoy's 5A (50-025-PB) containing 15% FBS, and 1% penicillin-streptomycin. All cell lines were maintained at 37° C. in a humidified 5% CO2, 95% air incubator.
The next day, compounds were diluted as follows: For 96-well assays, 13.5 μl of compound in DMSO were diluted using nine (9) serial 1:3 dilutions of 4.5 μl in 9 μl of DMSO. Medium (270 μl/well of RPMI with 10% FBS and 1% penicillin-streptomycin) was added to the plates. Aliquots (7 μl) were added to cells in the final assay giving a final DMSO concentration of 0.2%. For 384-well assays, 15 μl of compound in DMSO were diluted using nine (9) serial 1:3 dilutions of 5 μl in 10 μl of DMSO, followed by a further dilution of 5 μl of compound with 95 μl of medium, of which 2 μl are added to cells in the final assay giving a final DMSO concentration of 0.2%. Cells were incubated at 37° C., 5% CO2 for 3 days.
Total ATP was measured (as a surrogate estimate of cell number) using CellTiter-Glo® (Promega G7571) reagent. Briefly, plates were removed from the incubator and allowed to equilibrate to room temperature for 30 minutes. CellTiter-Glo® (25 μl or 55 μl for 384-well or 96-well assays, respectively) reagent was added to each well and plates were shaken on an orbital plate shaker for 2 minutes. Plates were incubated without shaking for a further 30 minutes and read on an LJL Analyst GT reader in luminometer mode with an integration time of 0.5 seconds per well. Percent inhibition of cell growth was calculated relative to DMSO vehicle-treated control wells.

SK-MEL-28 tumor cells = assay: Cell growth inhibition assay (CellTiter-Glo), SK-MEL-28; conditions: Homo sapiens, SK-MEL-28, 72 h, read-out: Activity in SK-MEL-28 Tumor Cells;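 note: luminescent total ATP as a proxy for cell number, threefold serial dilutions at 0.2% DMSO, percent growth inhibition versus DMSO vehicle control wells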

B-Raf, sequence (P15056 whole entry): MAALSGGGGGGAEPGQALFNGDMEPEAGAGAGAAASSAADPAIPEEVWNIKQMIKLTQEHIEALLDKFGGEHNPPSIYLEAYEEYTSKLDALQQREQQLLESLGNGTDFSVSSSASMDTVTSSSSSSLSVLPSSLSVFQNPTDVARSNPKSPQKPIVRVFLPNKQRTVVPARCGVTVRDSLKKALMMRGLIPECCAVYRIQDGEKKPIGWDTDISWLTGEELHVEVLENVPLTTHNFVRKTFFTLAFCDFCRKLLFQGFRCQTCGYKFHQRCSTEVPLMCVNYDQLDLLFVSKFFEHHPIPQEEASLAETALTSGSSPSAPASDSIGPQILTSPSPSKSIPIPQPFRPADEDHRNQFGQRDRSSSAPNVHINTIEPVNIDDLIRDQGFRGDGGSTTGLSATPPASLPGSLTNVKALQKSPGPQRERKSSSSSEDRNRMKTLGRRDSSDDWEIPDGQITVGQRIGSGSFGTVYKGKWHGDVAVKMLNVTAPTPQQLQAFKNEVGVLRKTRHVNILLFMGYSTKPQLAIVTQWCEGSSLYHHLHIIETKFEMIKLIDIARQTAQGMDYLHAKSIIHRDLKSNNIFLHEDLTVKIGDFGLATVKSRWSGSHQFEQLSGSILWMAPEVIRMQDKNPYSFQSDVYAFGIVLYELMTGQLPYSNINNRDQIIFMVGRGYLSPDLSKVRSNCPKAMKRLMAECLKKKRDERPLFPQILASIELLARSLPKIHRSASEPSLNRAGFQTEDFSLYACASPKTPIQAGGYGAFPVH

SMILES: Fc1cc(Nc2nccc(-c3sc(N4CCCC4)nc3-c3cccc(Cl)c3)n2)ccc1OCCN1CCCC1 [Example 103]
- IC50 (B-Raf): < 0.1 µM
- IC50 (EGFR): 0.1 to 1 µM
- IC50 (A375P tumor cells): 0.5 to 5 µM
- IC50 (ErbB2): < 0.1 µM
- IC50 (Colo205 tumor cells): 0.5 to 5 µM
- IC50 (HT-29 tumor cells): < 0.5 µM
- IC50 (SK-MEL-3 tumor cells): < 0.5 µM
- IC50 (SK-MEL-28 tumor cells): 0.5 to 5 µM

SMILES: CCNc1nc(-c2cccc(OC)c2)c(-c2ccnc(Nc3ccc(OCCN(C)C)c(C)c3)n2)s1 [Example 77, N-(4-{[2-(Dimethylamino)ethyl]oxy}-3-methylphenyl)-4-{2-(ethylamino)-4-[3-(methyloxy)phenyl]-1,3-thiazol-5-yl}-2-pyrimidinamine]
- IC50 (B-Raf): < 0.1 µM
- IC50 (EGFR): < 0.1 µM
- IC50 (A375P tumor cells): < 0.5 µM
- IC50 (ErbB2): < 0.1 µM
- IC50 (Colo205 tumor cells): < 0.5 µM
- IC50 (HT-29 tumor cells): < 0.5 µM
- IC50 (SK-MEL-3 tumor cells): < 0.5 µM
- IC50 (SK-MEL-28 tumor cells): 0.5 to 5 µM

SMILES: CCNc1nc(-c2cc(C)cc(OC)c2)c(-c2ccnc(Nc3ccc(N4CCN(CCS(C)(=O)=O)CC4)c(F)c3)n2)s1 [Example 27, 4-{2-(Ethylamino)-4-[3-methyl-5-(methyloxy)phenyl]-1,3-thiazol-5-yl}-N-(3-fluoro-4-{4-[2-(methylsulfonyl)ethyl]-1-piperazinyl}phenyl)-2-pyrimidinamine]
- IC50 (B-Raf): < 0.1 µM
- IC50 (EGFR): > 1 µM
- IC50 (A375P tumor cells): < 0.5 µM
- IC50 (ErbB2): > 1 µM
- IC50 (Colo205 tumor cells): < 0.5 µM
- IC50 (HT-29 tumor cells): < 0.5 µM
- IC50 (SK-MEL-3 tumor cells): < 0.5 µM
- IC50 (SK-MEL-28 tumor cells): < 0.5 µM

SMILES: CCNc1nc(-c2cc(OC)cc(OC)c2)c(-c2ccnc(Nc3ccc(OC4CCN(CCS(C)(=O)=O)CC4)c(F)c3)n2)o1 [Example 82]
- IC50 (B-Raf): < 0.1 µM
- IC50 (EGFR): > 1 µM
- IC50 (A375P tumor cells): > 5 µM
- IC50 (ErbB2): > 1 µM
- IC50 (Colo205 tumor cells): < 0.5 µM
- IC50 (HT-29 tumor cells): < 0.5 µM
- IC50 (SK-MEL-3 tumor cells): < 0.5 µM
- IC50 (SK-MEL-28 tumor cells): 0.5 to 5 µM

SMILES: CCNc1nc(-c2cccc(OC)c2)c(-c2ccnc(Nc3ccc(OC4CCN(CCS(C)(=O)=O)CC4)c(F)c3)n2)s1 [Example 41, 4-{2-(Ethylamino)-4-[3-(methyloxy)phenyl]-1,3-thiazol-5-yl}-N-[3-fluoro-4-({1-[2-(methylsulfonyl)ethyl]-4-piperidinyl}oxy)phenyl]-2-pyrimidinamine]
- IC50 (B-Raf): < 0.1 µM
- IC50 (EGFR): 0.1 to 1 µM
- IC50 (A375P tumor cells): < 0.5 µM
- IC50 (ErbB2): > 1 µM
- IC50 (Colo205 tumor cells): < 0.5 µM
- IC50 (HT-29 tumor cells): < 0.5 µM
- IC50 (SK-MEL-3 tumor cells): < 0.5 µM
- IC50 (SK-MEL-28 tumor cells): < 0.5 µM

SMILES: COCCNc1nc(-c2cccc(OC)c2)c(-c2ccnc(Nc3ccc(N4CCOCC4)c(Cl)c3)n2)s1 [Example 43, N-[3-Chloro-4-(4-morpholinyl)phenyl]-4-{2-{[2-(methyloxy)ethyl]amino}-4-[3-(methyloxy)phenyl]-1,3-thiazol-5-yl}-2-pyrimidinamine hydrochloride]
- IC50 (B-Raf): < 0.1 µM
- IC50 (EGFR): < 0.1 µM
- IC50 (A375P tumor cells): < 0.5 µM
- IC50 (ErbB2): < 0.1 µM
- IC50 (Colo205 tumor cells): 0.5 to 5 µM
- IC50 (HT-29 tumor cells): < 0.5 µM
- IC50 (SK-MEL-3 tumor cells): < 0.5 µM
- IC50 (SK-MEL-28 tumor cells): > 5 µM

SMILES: COc1cc(C)cc(-c2nc(C(C)C)sc2-c2ccnc(Nc3ccc(N4CCOCC4)nc3)n2)c1 [Example 61, 4-{2-(1-Methylethyl)-4-[3-methyl-5-(methyloxy)phenyl]-1,3-thiazol-5-yl}-N-[6-(4-morpholinyl)-3-pyridinyl]-2-pyrimidinamine]
- IC50 (B-Raf): < 0.1 µM
- IC50 (EGFR): > 1 µM
- IC50 (A375P tumor cells): < 0.5 µM
- IC50 (ErbB2): > 1 µM
- IC50 (Colo205 tumor cells): < 0.5 µM
- IC50 (HT-29 tumor cells): < 0.5 µM
- IC50 (SK-MEL-3 tumor cells): < 0.5 µM
- IC50 (SK-MEL-28 tumor cells): 0.5 to 5 µM

SMILES: CCNc1nc(-c2cc(OC)cc(OC)c2)c(-c2ccnc(Nc3ccc(OC4CCN(CCS(C)(=O)=O)CC4)c(C)c3)n2)o1 [Example 87]
- IC50 (B-Raf): < 0.1 µM
- IC50 (EGFR): > 1 µM
- IC50 (A375P tumor cells): 0.5 to 5 µM
- IC50 (ErbB2): > 1 µM
- IC50 (Colo205 tumor cells): 0.5 to 5 µM
- IC50 (HT-29 tumor cells): 0.5 to 5 µM
- IC50 (SK-MEL-3 tumor cells): 0.5 to 5 µM
- IC50 (SK-MEL-28 tumor cells): 0.5 to 5 µM

SMILES: CCNc1nc(-c2cc(OC)cc(OC)c2)c(-c2ccnc(Nc3ccc(N4CCOCC4)c(F)c3)n2)o1 [Example 118]
- IC50 (B-Raf): < 0.1 µM
- IC50 (EGFR): > 1 µM
- IC50 (A375P tumor cells): 0.5 to 5 µM
- IC50 (ErbB2): > 1 µM
- IC50 (Colo205 tumor cells): 0.5 to 5 µM
- IC50 (HT-29 tumor cells): 0.5 to 5 µM
- IC50 (SK-MEL-3 tumor cells): 0.5 to 5 µM
- IC50 (SK-MEL-28 tumor cells): 0.5 to 5 µM

SMILES: CCc1nc(-c2cc(C)cc(OC)c2)c(-c2ccnc(Nc3ccc(OCCO)c(C#N)c3)n2)s1 [Example 107]
- IC50 (B-Raf): < 0.1 µM
- IC50 (EGFR): > 1 µM
- IC50 (A375P tumor cells): 0.5 to 5 µM
- IC50 (ErbB2): > 1 µM
- IC50 (Colo205 tumor cells): < 0.5 µM
- IC50 (HT-29 tumor cells): < 0.5 µM
- IC50 (SK-MEL-3 tumor cells): < 0.5 µM
- IC50 (SK-MEL-28 tumor cells): 0.5 to 5 µM

SMILES: CCNc1nc(-c2cc(OC)cc(OC)c2)c(-c2ccnc(Nc3ccc(OC4CCN(CCS(C)(=O)=O)CC4)c(F)c3)n2)s1 [Example 10, 4-[4-[3,5-Bis(methyloxy)phenyl]-2-(ethylamino)-1,3-thiazol-5-yl]-N-[3-fluoro-4-({1-[2-(methylsulfonyl)ethyl]-4-piperidinyl}oxy)phenyl]-2-pyrimidinamine]
- IC50 (B-Raf): < 0.1 µM
- IC50 (EGFR): > 1 µM
- IC50 (A375P tumor cells): < 0.5 µM
- IC50 (ErbB2): > 1 µM
- IC50 (Colo205 tumor cells): < 0.5 µM
- IC50 (HT-29 tumor cells): < 0.5 µM
- IC50 (SK-MEL-3 tumor cells): < 0.5 µM
- IC50 (SK-MEL-28 tumor cells): < 0.5 µM

SMILES: CCNc1nc(-c2cc(C)cc(OC)c2)c(-c2ccnc(Nc3ccc(N4CCOCC4)c(F)c3)n2)s1 [Example 28, 4-{2-(Ethylamino)-4-[3-methyl-5-(methyloxy)phenyl]-1,3-thiazol-5-yl}-N-[3-fluoro-4-(4-morpholinyl)phenyl]-2-pyrimidinamine]
- IC50 (B-Raf): < 0.1 µM
- IC50 (EGFR): > 1 µM
- IC50 (A375P tumor cells): < 0.5 µM
- IC50 (ErbB2): > 1 µM
- IC50 (Colo205 tumor cells): < 0.5 µM
- IC50 (HT-29 tumor cells): < 0.5 µM
- IC50 (SK-MEL-3 tumor cells): < 0.5 µM
- IC50 (SK-MEL-28 tumor cells): < 0.5 µM

— patent US20110190280A1, “Thiazole And Oxazole Kinase Inhibitors” (priority 2007, published 2011)
